Laboratory results as given in patent US7655632B2, “Pyrazole derivative, medicinal composition containing the same, medicinal use thereof, and intermediate for production thereof” (Kissei Pharmaceutical Co., Ltd., priority 2002, dated 2010).

What was measured:
[1] = target: T1, human SGLT1 (Homo sapiens, UniProt P13866); assay: Assay for inhibitory effects on human SGLT1 activity (uptake of methyl-α-D-glucopyranoside in CS1-5-11D cells); type: cell-based; settings: CHO-K1 cells stably expressing human SGLT1 (CS1-5-11D); 1 mM α-MG uptake, 37° C., 1 hour
T1 construct: expressed in transfected cells
T1 sequence (P13866 1-664): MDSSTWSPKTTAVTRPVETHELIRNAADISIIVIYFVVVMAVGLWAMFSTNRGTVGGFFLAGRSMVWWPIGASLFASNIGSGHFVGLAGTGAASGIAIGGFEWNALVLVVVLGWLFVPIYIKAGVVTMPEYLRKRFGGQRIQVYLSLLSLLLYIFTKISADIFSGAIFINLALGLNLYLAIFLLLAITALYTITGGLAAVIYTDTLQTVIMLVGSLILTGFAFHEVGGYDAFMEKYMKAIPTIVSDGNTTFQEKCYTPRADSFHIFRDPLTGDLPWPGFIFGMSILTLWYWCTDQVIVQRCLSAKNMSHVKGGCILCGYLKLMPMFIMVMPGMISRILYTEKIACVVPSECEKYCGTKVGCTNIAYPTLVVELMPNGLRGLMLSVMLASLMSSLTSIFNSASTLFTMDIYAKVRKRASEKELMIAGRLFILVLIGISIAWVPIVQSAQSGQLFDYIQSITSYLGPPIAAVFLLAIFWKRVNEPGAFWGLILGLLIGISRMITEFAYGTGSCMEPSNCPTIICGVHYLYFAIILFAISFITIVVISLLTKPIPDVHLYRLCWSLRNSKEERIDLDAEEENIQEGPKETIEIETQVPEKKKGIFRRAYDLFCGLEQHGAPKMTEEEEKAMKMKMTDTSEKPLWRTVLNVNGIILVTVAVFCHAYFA
Protocol: Assay for Inhibitory Effects on Human SGLT1 Activity
1) Cloning and Construction of the Vector Expressing Human SGLT1
The cDNA library was prepared for PCR amplification by reverse transcription from total RNA deprived from human small intestine (Ori gene) using oligo-dT as a primer. Using this cDNA library as a template, the DNA fragment coding 1 to 2005 bp of human SGLT1 (ACCESSION: M24847), which was reported by Hediger et al., was amplified by PCR method and inserted into the multi-cloning site of pcDNA3.1(−) (Invitrogen). The DNA sequence inserted was perfectly matched to the previously reported sequence.
2) Establishment of Cell Line Stably Expressing Human SGLT1
The expression vector of human SGLT1 was digested by Sca I into a linear DNA. The linear DNA was transfected into CHO-K1 cells by means of lipofection (Effectene Transfection Reagent: QIAGEN). Neomycin resistant cell lines were selected by culture in the medium containing G418 (1 mg/mL, LIFE TECHNOLOGIES), and then the activity against the uptake of methyl-α-D-gluco-pyranoside was measured by the method described below. […] CS1-5-11D cells were cultured in the presence of G418 at 200 μg/mL.
3) Measurement of the Inhibitory Activity Against the Uptake of methyl-α-D-glucopyranoside (α-MG)
CS1-5-11D cells were seeded into a 96-well culture plate at a density of 3×10^4 cells/well and cultured for 2 days, and were used in the uptake assay. A mixture of non-labeled (Sigma) and ^14C-labeled α-MG (Amersham Pharmcia Biotec) was added to the uptake buffer (pH 7.4; containing 140 mM sodium chloride, 2 mM potassium chloride, 1 mM calcium chloride, 1 mM magnesium chloride, 10 mM 2-[4-(2-hydroxyethyl)-1-piperazinyl]ethane sulfonic acid, and 5 mM tris(hydroxymethyl)aminomethane) at the final concentration of 1 mM. A test compound was dissolved in dimethyl sulfoxide, and then appropriately diluted with distilled water. The test compound solution was added to the uptake buffer containing 1 mM α-MG, and designated as a measurement buffer. For the control group, the measurement buffer without any test compound was prepared. For measuring the basal uptake, a basal uptake measurement buffer which contains 140 mM chorine chloride instead of sodium chloride was prepared. After removing the culture medium of CS1-5-11D cells, 180 μL of the pre-treatment buffer (the basal uptake buffer without α-MG) was added to each well and incubated at 37° C. for 10 minutes. After repeating the same treatment, the pre-treatment buffer was removed. To each well was added 75 μL of the measurement buffer or the basal uptake buffer was added and incubated at 37° C. for 1 hour. After removing the measurement buffer, cells were washed twice with 180 μL per well of the washing buffer (the basal uptake buffer containing 10 mM non-labeled α-MG). The cells were solubilized by 75 μL per well of 0.2 mol/L sodium hydroxide. The cell lysates were transferred into PicoPlates (Packard), and then added 150 μL of MicroScint-40 (Packard) and mixed. Radioactivity was measured by means of micro-scintillation counter TopCount (Packard). One hundred % was set to the difference between the uptake in the control group and the basal uptake, and the uptake of methyl α-D-gluco-pyranoside at each drug concentration were calculated.

[2] = test system: diabetic rats; assay: Assay for inhibitory effects on blood glucose level increase in rats (liquid meal tolerance test in diabetic rat model); type: in vivo; settings: test compound 1 mg/kg orally, liquid meal 17.25 kcal/kg, mean ± S.E.; for Plasma glucose concentration 0.5 h: 0.5 hour after drug administration; for Plasma glucose concentration 1 h: 1 hour after drug administration; for Plasma glucose concentration 0 h: pretreatment (0 h)
Protocol: Assay for Inhibitory Effects on Blood Glucose Level Increase in rats
1) Preparation of Diabetic Rat Model
Male wistar rats (Japan Charles River), aged 8 weeks old, were injected nicotinamide (230 mg/kg) intraperitoneally. Fifteen minutes after injection, they were injected streptozotocin (85 mg/kg) intravenously from tail vain under anesthesia with ether. After a week, rats were fasted overnight and then glucose tolerance test (2 g/kg) was done.
2) Liquid Meal Tolerance Test
After overnight fasted, the diabetic rats were orally administered a test compound (1 mg/kg), which was dissolved in distilled water, in the drug-treating group, or distilled water alone in a control group. Immediately after the compound administration, 17.25 kcal/kg of liquid meal (No. 038, Control diet, assorted with dextrin and maltose; Oriental Yeast Co., Ltd.) was loaded orally. The blood was collected from tail artery immediately before and after administration with the time course, and treated with heparin immediately. The blood was centrifuged, and the plasma was collected to quantify the plasma glucose concentration by glucose oxidase method. The values in the table are presented as the mean ±S.E.

Molecule | IC50 [1] | Plasma glucose concentration 0.5 h [2] | Plasma glucose concentration 1 h [2] | Plasma glucose concentration 0 h [2]
CC(C)c1[nH]nc(O[C@@H]2O[C@H](CO)[C@H](O)[C@H](O)[C@H]2O)c1Cc1ccc(CCCC(=O)NC(C)(C)C(N)=O)cc1 [Example 33, 4-[(4-{3-[1-Carbamoyl-1-(methyl)ethylcarbamoyl]propyl}-phenyl)methyl]-3-(β-D-galactopyranosyloxy)-5-isopropyl-1H-pyrazole] | 0.174 µM | 207 ± 8 mg/dL | 251 ± 21 mg/dL | 127 ± 11 mg/dL
3-(β-D-Galactopyranosyloxy)-4-[(4-{3-[2-hydroxy-1-hydroxy-methyl-1-(methyl)ethylcarbamoyl]propyl}phenyl)methyl]-5-isopropyl-1H-pyrazole [Example 32] | 0.22 µM | 223 ± 20 mg/dL | 278 ± 32 mg/dL | 125 ± 8 mg/dL
